Experimental data published in patent US20150152083A1, “Compounds and Compositions for Modulating EGFR Activity” (IRM LLC, A Delaware Limited Liability Company, priority 2012, published 2015).

How the values were obtained:
EGFR(L858R/T790M) [1] = target: T1, EGFR(L858R/T790M) (Homo sapiens, UniProt P00533, L858R/T790M); test: EGFR target modulation in engineered NIH3T3 cell lines (phospho-EGFR AlphaLISA); assay type: cell-based; design: host or cells: NIH3T3; settings: NIH3T3 cells expressing human EGFR L858R/T790M; 3 hours compound
Protocol: (§1) EGFR Target Modulation in Engineered NIH3T3 Cell Lines
(§2) NIH3T3 cell lines expressing human EGFR (WT, L858R, and L858RT790M) (obtained from Matthew Meyerson's Lab at DFCI) were maintained in 10% FBS/DMEM supplemented with 100 μg/ml Penicillin/Streptomycin (Hyclone #SV30010) and 2 μg/ml Puromycin. The cells were harvested with 0.05% Trypsin/EDTA (Hyclone #SH30236.01), re-suspended in 5% FBS/DMEM Pen/Strep without Puromycin and plated at 9,000 cells per well in 50 μl of media in a 384-well black plate with clear bottoms (Greiner #789068G). The cells were allowed to incubate overnight in a 37° C., 5% CO2 humidified tissue culture incubator. A 12-point test compound curve was prepared by serial diluting a 10 μM stock 1:3 in DMSO in a 384-well compound plate (Greiner #789201L). The serial diluted compounds were transferred to the plate containing cells by using a 50 nl Pin Head device (Perkin Elmer) and the cells were placed back in the incubator for 3 hours. Only the EGFR WT-expressing cells were induced with 50 ng/ml EGF (Preprotech #AF-100-15) for 5 minutes before lysis. The media was removed and cells were lysed in 25 μl of Lysis buffer containing protease and phosphatase inhibitors (1% Triton X-100, 20 mM Tris, pH 7.5, 1 mM EDTA, 1 mM EGTA, 150 mM NaCl, 1× complete cocktail inhibitor (Roche #11 697 498 001), 1× Phosphatase Inhibitor Cocktail Set II and Set III (Sigma #P5726 and #P0044)). The plates were shaken at 4° C. for 5 minutes with foil top at maximum speed. An aliquot of 5 μl from each well was transferred to ProxiPlate™ 384-well Plus plates (PE #6008289). The plates were sealed with a foil top and frozen at −80° C. and thawed when needed.
(§3) The frozen aliquots were thawed and briefly centrifuged. All antibodies and beads were diluted in 1× AlphaLISA HiBlock Buffer (PE #AL004C). Biotinylated anti-phospho-EGFR (Y1068) (Cell Signaling #4031) was incubated with the lysate for 1 hour at room temperature at 1 nM final concentration. Goat anti-total EGFR (R&D Systems #AF231) was added and allowed to equilibrate for 1 hour at room temperature at 1 nM final concentration. Then, 10 μl of mixed beads (AlphaScreen Streptavidin Donor Beads (PE #6760002S) and AlphaLISA anti-goat IgG Acceptor Beads (PE #AL107C)) was equilibrated for 1.5 hours before reading on EnVision plate reader using the built-in settings for AlphaScreen.
(§4) Cells untreated (L858R and L858RT790M) or EGF-induced (WT) were set to 100% maximum response. For a negative control, 10 μM HKI-272 was used to normalize data to 0% of maximum response. With these parameters, the IC50's for each compound in each cell line was calculated using non-linear curve fitting analysis.
Target sequence in this assay (P00533 25-1210 T790M/L858R): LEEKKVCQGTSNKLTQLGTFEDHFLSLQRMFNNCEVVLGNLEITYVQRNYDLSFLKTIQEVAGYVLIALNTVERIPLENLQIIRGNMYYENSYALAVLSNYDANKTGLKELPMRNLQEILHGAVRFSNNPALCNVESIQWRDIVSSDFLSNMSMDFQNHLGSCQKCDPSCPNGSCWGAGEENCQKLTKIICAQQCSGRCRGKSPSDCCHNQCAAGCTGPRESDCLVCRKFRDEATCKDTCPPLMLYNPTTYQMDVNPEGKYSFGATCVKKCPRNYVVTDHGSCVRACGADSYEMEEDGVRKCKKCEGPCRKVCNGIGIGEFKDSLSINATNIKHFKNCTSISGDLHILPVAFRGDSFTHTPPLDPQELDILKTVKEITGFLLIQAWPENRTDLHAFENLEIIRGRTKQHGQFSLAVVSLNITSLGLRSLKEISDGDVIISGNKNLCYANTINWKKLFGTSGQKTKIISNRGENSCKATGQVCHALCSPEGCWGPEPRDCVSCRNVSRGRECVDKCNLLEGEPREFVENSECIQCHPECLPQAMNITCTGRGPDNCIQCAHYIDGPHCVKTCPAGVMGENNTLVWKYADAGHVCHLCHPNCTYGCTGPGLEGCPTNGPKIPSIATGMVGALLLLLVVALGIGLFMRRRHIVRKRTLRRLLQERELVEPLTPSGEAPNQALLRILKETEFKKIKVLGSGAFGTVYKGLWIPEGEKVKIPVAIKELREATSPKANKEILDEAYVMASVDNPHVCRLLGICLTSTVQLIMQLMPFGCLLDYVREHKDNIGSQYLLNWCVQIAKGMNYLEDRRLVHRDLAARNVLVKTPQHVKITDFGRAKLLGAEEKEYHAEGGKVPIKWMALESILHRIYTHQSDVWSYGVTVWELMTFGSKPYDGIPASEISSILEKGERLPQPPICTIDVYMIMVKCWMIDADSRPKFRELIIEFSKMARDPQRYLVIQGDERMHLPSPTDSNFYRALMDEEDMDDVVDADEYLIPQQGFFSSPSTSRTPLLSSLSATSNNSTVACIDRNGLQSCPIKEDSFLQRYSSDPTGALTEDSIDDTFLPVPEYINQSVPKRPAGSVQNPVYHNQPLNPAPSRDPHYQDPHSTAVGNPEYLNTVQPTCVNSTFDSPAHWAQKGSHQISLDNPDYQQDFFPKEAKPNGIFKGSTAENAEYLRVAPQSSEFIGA

EGFR(L858R/T790M) [2] = target: T1, EGFR(L858R/T790M); test: EGFR biochemical assay (HTRF), IC50 determination; design: purchased from Carna (GST-a.a. 669-1210); purchased Carna; settings: 10 μM ATP
Protocol: All EGFR biochemical assays were carried out by HTRF method. The EGFR(L858RT790M) enzyme were purchased from Carna (GST-a.a. 669-1210). The substrate peptide Biotin-TK-peptide was purchased from Cis-Bio. The reaction mixtures contained 1 μM peptide substrate, 10 μM ATP, and 0.036 nM EGFR(L858RT790M) in the reaction buffer (50 mM HEPES pH 7.1, 10 mM MgCl2, 0.01% BSA, 1 mM TCEP and 0.1 mM Na3VO4) at a final volume of 10 μL. All reactions were carried out at room temperature in white ProxiPlate™ 384-well Plus plates (PerkinElmer) and were quenched with 5 μL of 0.2 M EDTA at 60 min Five μL of the detection reagents (2.5 ng PT66K and 0.05 μg SAXL per well) were added, the plates were incubated at room temperature for 1 h and then read in EnVision reader. […] For no-preincubation condition, the compounds were added to the assay solution containing ATP and peptide, and the reaction was initiated by addition of enzyme. For pre-incubation conditions, the compounds were added to the assay solution containing enzyme and peptide, and pre-incubated at room temperature for desired period of time, then the reaction was initiated by addition of ATP.
Target sequence in this assay (P00533 669-1210 T790M/L858R): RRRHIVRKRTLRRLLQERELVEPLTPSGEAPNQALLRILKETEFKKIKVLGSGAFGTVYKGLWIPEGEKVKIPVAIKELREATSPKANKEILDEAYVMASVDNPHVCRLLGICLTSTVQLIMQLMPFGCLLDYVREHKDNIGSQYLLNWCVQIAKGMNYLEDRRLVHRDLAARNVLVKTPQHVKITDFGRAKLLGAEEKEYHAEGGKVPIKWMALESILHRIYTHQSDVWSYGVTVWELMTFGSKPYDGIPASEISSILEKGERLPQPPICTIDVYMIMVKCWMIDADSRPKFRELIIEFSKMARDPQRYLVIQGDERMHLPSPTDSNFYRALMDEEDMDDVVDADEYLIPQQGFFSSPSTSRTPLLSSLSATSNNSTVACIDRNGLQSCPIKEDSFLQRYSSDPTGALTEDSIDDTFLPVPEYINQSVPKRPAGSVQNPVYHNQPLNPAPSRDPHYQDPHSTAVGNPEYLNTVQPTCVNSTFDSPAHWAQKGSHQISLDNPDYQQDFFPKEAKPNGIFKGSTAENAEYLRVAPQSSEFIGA

EGFR (WT) = target: T2, EGFR (WT) (Homo sapiens, UniProt P00533); test: EGFR target modulation in engineered NIH3T3 cell lines (phospho-EGFR AlphaLISA); assay type: cell-based; settings: NIH3T3 cells expressing human EGFR WT; 3 hours compound; induced with 50 ng/ml EGF
T2 construct: host or cells: NIH3T3
Protocol: as §1, §2, §3, §4

EGFR (L858R) = target: T3, EGFR (L858R) (Homo sapiens, UniProt P00533, L858R); test: as above; assay type: cell-based; settings: NIH3T3 cells expressing human EGFR L858R; 3 hours compound
T3 construct: host or cells: NIH3T3
Protocol: as §1, §2, §3, §4

[3] = EGFR (L858R/T790M) IC50 (μM) 90 min pre-incubation, 90 min pre-incubation
[4] = no pre-incubation, read-out: EGFR (L858R/T790M) IC50 (μM) No pre-incubation

T2 sequence (P00533 25-1210): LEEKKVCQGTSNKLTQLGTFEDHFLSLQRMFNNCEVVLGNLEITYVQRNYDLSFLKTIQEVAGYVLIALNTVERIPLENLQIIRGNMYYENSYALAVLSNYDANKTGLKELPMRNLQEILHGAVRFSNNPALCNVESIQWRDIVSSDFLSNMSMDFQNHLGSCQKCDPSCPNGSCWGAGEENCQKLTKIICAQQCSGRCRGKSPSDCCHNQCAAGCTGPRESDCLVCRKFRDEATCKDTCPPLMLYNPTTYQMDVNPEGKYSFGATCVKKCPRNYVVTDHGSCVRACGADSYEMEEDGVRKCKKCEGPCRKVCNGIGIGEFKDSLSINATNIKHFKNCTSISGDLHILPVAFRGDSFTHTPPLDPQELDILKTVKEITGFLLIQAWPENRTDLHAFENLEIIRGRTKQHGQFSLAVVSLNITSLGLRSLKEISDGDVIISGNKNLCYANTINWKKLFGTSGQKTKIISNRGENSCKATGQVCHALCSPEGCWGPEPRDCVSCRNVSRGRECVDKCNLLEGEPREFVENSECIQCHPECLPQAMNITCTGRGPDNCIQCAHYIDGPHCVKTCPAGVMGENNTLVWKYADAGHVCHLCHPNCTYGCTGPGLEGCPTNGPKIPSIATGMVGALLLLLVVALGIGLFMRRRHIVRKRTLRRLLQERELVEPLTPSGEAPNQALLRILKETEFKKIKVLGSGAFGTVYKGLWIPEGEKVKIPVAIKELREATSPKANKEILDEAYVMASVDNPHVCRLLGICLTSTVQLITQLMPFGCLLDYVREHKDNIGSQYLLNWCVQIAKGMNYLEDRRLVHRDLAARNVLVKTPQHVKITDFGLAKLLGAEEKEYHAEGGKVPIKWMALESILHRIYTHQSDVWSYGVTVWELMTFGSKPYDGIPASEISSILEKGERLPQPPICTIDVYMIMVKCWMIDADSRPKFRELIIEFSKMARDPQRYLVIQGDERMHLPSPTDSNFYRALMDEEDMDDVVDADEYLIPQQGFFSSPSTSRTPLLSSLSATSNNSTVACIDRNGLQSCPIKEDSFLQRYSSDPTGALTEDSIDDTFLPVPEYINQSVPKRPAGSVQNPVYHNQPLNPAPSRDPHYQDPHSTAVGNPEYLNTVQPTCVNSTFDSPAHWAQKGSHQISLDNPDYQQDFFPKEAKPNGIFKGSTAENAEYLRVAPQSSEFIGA
T3 sequence (P00533 25-1210 L858R): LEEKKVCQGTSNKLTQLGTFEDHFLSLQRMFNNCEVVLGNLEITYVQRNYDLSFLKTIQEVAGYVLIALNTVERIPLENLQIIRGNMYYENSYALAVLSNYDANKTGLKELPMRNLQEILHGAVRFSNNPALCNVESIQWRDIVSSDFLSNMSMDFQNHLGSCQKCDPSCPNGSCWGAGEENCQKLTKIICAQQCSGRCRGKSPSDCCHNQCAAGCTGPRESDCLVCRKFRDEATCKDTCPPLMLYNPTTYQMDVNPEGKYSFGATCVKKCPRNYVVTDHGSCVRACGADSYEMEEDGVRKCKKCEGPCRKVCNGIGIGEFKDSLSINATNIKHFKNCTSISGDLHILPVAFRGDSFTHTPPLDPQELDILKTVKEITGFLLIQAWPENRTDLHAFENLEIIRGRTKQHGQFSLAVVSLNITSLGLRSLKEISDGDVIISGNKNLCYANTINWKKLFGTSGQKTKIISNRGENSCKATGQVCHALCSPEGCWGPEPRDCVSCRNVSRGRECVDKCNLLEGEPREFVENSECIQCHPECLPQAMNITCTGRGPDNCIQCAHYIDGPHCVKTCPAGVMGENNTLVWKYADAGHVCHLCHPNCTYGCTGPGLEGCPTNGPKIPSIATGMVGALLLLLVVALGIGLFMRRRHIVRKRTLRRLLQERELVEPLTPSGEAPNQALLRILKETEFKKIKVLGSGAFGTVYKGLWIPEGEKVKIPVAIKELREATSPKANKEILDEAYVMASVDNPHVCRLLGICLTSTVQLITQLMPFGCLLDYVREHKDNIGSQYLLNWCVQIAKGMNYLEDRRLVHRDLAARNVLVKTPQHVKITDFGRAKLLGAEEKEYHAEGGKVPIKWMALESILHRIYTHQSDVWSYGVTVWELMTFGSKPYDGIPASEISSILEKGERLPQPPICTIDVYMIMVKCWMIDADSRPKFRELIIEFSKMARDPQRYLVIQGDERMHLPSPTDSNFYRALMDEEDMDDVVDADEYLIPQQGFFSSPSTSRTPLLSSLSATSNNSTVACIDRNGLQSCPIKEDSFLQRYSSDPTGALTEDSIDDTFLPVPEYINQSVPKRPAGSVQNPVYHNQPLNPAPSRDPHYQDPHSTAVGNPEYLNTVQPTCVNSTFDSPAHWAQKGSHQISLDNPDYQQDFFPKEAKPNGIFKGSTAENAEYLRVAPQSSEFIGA

Row | Compound | IC50 (EGFR(L858R/T790M) [1]) [µM] | IC50 (EGFR(L858R/T790M) [2]; [3]) [µM] | IC50 (EGFR(L858R/T790M) [2]; [4]) [µM] | IC50 (EGFR (WT)) [µM] | IC50 (EGFR (L858R)) [µM]
1 | C=CC(=O)N[C@H]1CCCC(n2c(NC(=O)c3cccc(C(F)(F)F)c3)nc3cccc(C)c32)C1 (mixture of isomers) [Example 6, trans-N-(1-(3-acrylamidocyclohexyl)-7-methyl-1H-benzo[d]imidazol-2-yl)-3-(trifluoromethyl)benzamide] | 0.14 | 0.009 | 0.18 | > 10 | 0.69
2 | C=CC(=O)N[C@@H]1CCC[C@H](n2c(NC(=O)c3cccc(C(F)(F)F)c3)nc3cccc(C)c32)C1 (racemic) [Example 7, cis-N-(1-(3-acrylamidocyclohexyl)-7-methyl-1H-benzo[d]imidazol-2-yl)-3-(trifluoromethyl)benzamide] | 0.037 | 0.002 | 0.039 | > 10 | 0.28
3 | C=CC(=O)N[C@@H]1CCC[C@H](n2c(NC(=O)c3cccc(C(F)(F)F)c3)nc3cc(C)ccc32)C1 (racemic) [Example 8-1, N-{5-methyl-1-[(1S,3R)-3-(prop-2-enamido)cyclohexyl]-1H-1,3-benzodiazol-2-yl}-3-(trifluoromethyl)benzamide] | 0.041 |  |  | > 10 | 0.54
4 | C=CC(=O)NC1CCC(n2c(NC(=O)c3cccc(C(F)(F)F)c3)nc3cc(C)ccc32)C1 (racemic) [Example 8-3, N-{5-methyl-1-[3-(prop-2-enamido)cyclopentyl]-1H-1,3-benzodiazol-2-yl}-3-(trifluoromethyl)benzamide] |  | 0.15 | 0.72 |  | 
5 | C=CC(=O)N[C@H]1CC[C@@H](n2c(NC(=O)c3cccc(C(F)(F)F)c3)nc3cc(C)ccc32)C1 (single isomer, unassigned) [Example 9-1A] |  | 0.08 | 0.75 |  | 
6 | C=CC(=O)N[C@@H]1CC[C@H](n2c(NC(=O)c3cccc(C(F)(F)F)c3)nc3cc(C)ccc32)C1 (single isomer, unassigned) [Example 9-1B] |  | 0.15 | 0.29 |  | 
7 | C=CC(=O)N[C@H]1CCC[C@@H](n2c(NC(=O)c3cccc(C(F)(F)F)c3)nc3cc(C)ccc32)C1 (single isomer, unassigned) [Example 9-2A] | 0.032 |  |  | > 10 | 0.54
8 | C=CC(=O)N[C@@H]1CCC[C@H](n2c(NC(=O)c3cccc(C(F)(F)F)c3)nc3cc(C)ccc32)C1 (single isomer, unassigned) [Example 9-2B] | 0.4 |  |  | > 10 | > 10
9 | C=CC(=O)Nc1ccc(-n2c(NC(=O)c3cccc(C(F)(F)F)c3)nc3cc(C)ccc32)cc1 [Example 2-11, N-{5-methyl-1-[4-(prop-2-enamido)phenyl]-1H-1,3-benzodiazol-2-yl}-3-(trifluoromethyl)benzamide] |  | 0.15 | 1.04 |  | 
10 | C=CC(=O)Nc1ccccc1-n1c(NC(=O)c2cccc(C(F)(F)F)c2)nc2cc(C)ccc21 [Example 2-12, N-{5-methyl-1-[2-(prop-2-enamido)phenyl]-1H-1,3-benzodiazol-2-yl}-3-(trifluoromethyl)benzamide] |  | 0.1 | 1.8 |  | 
11 | C/C=C/C(=O)Nc1cccc(-n2c(NC(=O)c3cccc(C(F)(F)F)c3)nc3cc(C)ccc32)c1 [Example 2-14, N-{1-[3-(but-2-enamido)phenyl]-5-methyl-1H-1,3-benzodiazol-2-yl}-3-(trifluoromethyl)benzamide] |  | 0.101 | 0.36 |  | 
12 | Cc1cc(C(=O)Nc2nc3cccc(Cl)c3n2-c2cc(NC(=O)/C=C/CN(C)C)ccc2C)ccn1 [Example 2-15, (E)-N-(7-chloro-1-(5-(4-(dimethylamino)but-2-enamido)-2-methylphenyl)-1H-benzo[d]imidazol-2-yl)-2-methylisonicotinamide] |  | 1.06 | 20 |  | 
13 | C=CC(=O)Nc1ccc(C)c(-n2c(NC(=O)c3ccnc(C)c3)nc3cccc(Cl)c32)c1 [Example 2-16, N-(1-(5-acrylamido-2-methylphenyl)-7-chloro-1H-benzo[d]imidazol-2-yl)-2-methylisonicotinamide] |  | 1.07 | 9.38 |  | 
14 | C=CC(=O)Nc1cc(-n2c(NC(=O)c3ccnc(C)c3)nc3cccc(Cl)c32)ccc1C [Example 2-17, N-(1-(3-acrylamido-4-methylphenyl)-7-chloro-1H-benzo[d]imidazol-2-yl)-2-methylisonicotinamide] |  | 0.006 | 0.065 |  | 
15 | C=CC(=O)Nc1cc(C)cc(-n2c(NC(=O)c3ccnc(C)c3)nc3cccc(Cl)c32)c1 [Example 2-18, N-(1-(3-acrylamido-5-methylphenyl)-7-chloro-1H-benzo[d]imidazol-2-yl)-2-methylisonicotinamide] |  | 0.046 | 0.627 |  | 
16 | C=CC(=O)NCCn1c(NC(=O)c2cccc(C(F)(F)F)c2)nc2cc(C)ccc21 [Example 8-5, N-{5-methyl-1-[2-(prop-2-enamido)ethyl]-1H-1,3-benzodiazol-2-yl}-3-(trifluoromethyl)benzamide] |  | 0.82 | 2.64 |  | 
17 | C=CC(=O)N[C@H]1CCCCC1n1c(NC(=O)c2cccc(C(F)(F)F)c2)nc2cc(C)ccc21 (stereo partly drawn) [Example 8-6, N-{5-methyl-1-[(1R,25)-2-(prop-2-enamido)cyclohexyl]-1H-1,3-benzodiazol-2-yl}-3-(trifluoromethyl)benzamide] |  | 0.079 | > 50 |  | 
18 | C=CC(=O)N[C@@H]1CCCC[C@H]1n1c(NC(=O)c2cccc(C(F)(F)F)c2)nc2cc(C)ccc21 [Example 8-7, N-{5-methyl-1-[(1R,2R)-2-(prop-2-enamido)cyclohexyl]-1H-1,3-benzodiazol-2-yl}-3-(trifluoromethyl)benzamide] |  | 0.31 | 2.3 |  | 
19 | C=CC(=O)N[C@H]1CC[C@@H](n2c(NC(=O)c3cccc(C(F)(F)F)c3)nc3cc(C)ccc32)CC1 [Example 8-8, N-{5-methyl-1-[(1S,4S)-4-(prop-2-enamido)cyclohexyl]-1H-1,3-benzodiazol-2-yl}-3-(trifluoromethyl)benzamide] |  | 0.21 | 0.46 |  | 
20 | C=CC(=O)N[C@H]1CC[C@H](n2c(NC(=O)c3cccc(C(F)(F)F)c3)nc3cc(C)ccc32)CC1 [Example 8-9, N-{5-methyl-1-[(1R,4R)-4-(prop-2-enamido)cyclohexyl]-1H-1,3-benzodiazol-2-yl}-3-(trifluoromethyl)benzamide] |  | 0.57 | 0.22 |  | 
